Measured values published in patent US9593305B2, “Differentiation of pluripotent stem cells” (Janssen Biotech, Inc., priority 2008, dated 2017).

Test system: H1 human embryonic stem cells
Assay: Primary screening: definitive endoderm differentiation in the absence of activin A, cell number and SOX17 (Example 3)
Format: cell-based
Details: for Cell Number, % of positive control / Sox17 Intensity % of positive control: Table 2 hit subset of primary screening, no activin A; for Cell Number, % of positive control / Sox17 Intensity % of positive control / SOX17 expression in the absence of activin A: 2.5 μM; for Cell Number: % of positive control / Sox17 Expression: % of positive control / Sox17 Expression: Average Total Intensity / Cell Number: Average Total Cell Number: 2.5 μM compound, 20 ng/ml Wnt3a days 1-2, no activin A, four-day assay; for Cell Number: Average Total Cell Number: positive control 100 ng/ml activin A + Wnt3a; for SOX17 expression in the absence of activin A: primary screening
Experimental: Briefly, clusters of H1 human embryonic stem cells were grown on reduced growth factor […]™ (Invitrogen; Cat #1356231)-coated tissue culture plastic. Cells were passaged using collagenase (Invitrogen; Cat #17104-019) treatment and gentle scraping, washed to remove residual enzyme, and plated with even dispersal at a ratio of 1:1 (surface area) on reduced growth factor […]™-coated 96-well black plates (Packard ViewPlates; PerkinElmer; Cat #6005182) using volumes of 100 μl/well. Cells were allowed to attach as clusters and then recover log phase growth over a 1 to 3 day period, feeding daily with MEF conditioned medium supplemented with 8 ng/ml bFGF (R&D Systems; Cat #233-FB). Plates were maintained at 37° C., 5% CO2 in a humidified box throughout the duration of assay.
The compounds tested were made available as 5 mM stocks in 96-well plate format, solubilized in 100% DMSO (Sigma; Cat #D2650) and stored at −80° C. The library compounds were further diluted to an intermediate concentration of 0.2 mM in 50 mM HEPES (Invitrogen; Cat #15630-080), 20% DMSO and stored at 4° C. Test conditions were performed in triplicate, feeding on alternate days over a four-day assay period. Primary screening assays were initiated by aspirating culture medium from each well followed by three washes in PBS (Invitrogen; Cat #14190) to remove residual growth factors and serum. On the first day of assay, test volumes of 200 μl per well were added back containing DMEM:F12 base medium (Invitrogen; Cat #11330-032) supplemented with 0.5% FCS (HyClone; Cat #SH30070.03) and 20 ng/ml Wnt3a (R&D Systems; Cat #1324-WN) plus 2.5 μM test compound. On the third day of assay, test volumes of 200 μl per well were added back containing DMEM:F12 base medium supplemented with 2% FCS plus 2.5 μM test compound, without Wnt3a. Positive control samples contained the same base medium supplemented with FCS, substituting 100 ng/ml recombinant human activin A (PeproTech; Cat #120-14) for the test compound throughout the four-day assay along with Wnt3a (20 ng/ml) added only on days 1 and 2. Negative control samples contained DMEM:F12 base medium supplemented with FCS, adding Wnt3a on days 1 and 2 but omitting activin A.
At the conclusion of four-days of culture, assay plates were washed twice with PBS (Invitrogen; Cat #14190), fixed with 4% paraformaldehyde (Alexis Biochemical; Cat #ALX-350-011) at room temperature for 20 minutes, then washed three times with PBS and permeabilized with 0.5% Triton X-100 (Sigma; Cat #T8760-2) for 20 minutes at room temperature. Cells were washed again three times with PBS and blocked with 4% chicken serum (Invitrogen; Cat #16110082) in PBS for 30 minutes at room temperature. Primary antibody (goat anti-human SOX17; R&D Systems; Cat #AF1924) was diluted 1:100 in 4% chicken serum and added to each well for one hour at room temperature. Alexa Fluor 488 conjugated secondary antibody (chicken anti-goat IgG; Molecular Probes; Cat #AZ1467) was diluted 1:200 in PBS and added to each sample well after washing three times with PBS. To counter stain nuclei, 4 μg/ml Hoechst 33342 (Invitrogen; Cat #H3570) was added for ten minutes at room temperature. Plates were washed once with PBS and left in 100 μl/well PBS for imaging.
Imaging was performed using an IN Cell Analyzer 1000 (GE Healthcare) utilizing the 51008bs dichroic for cells stained with Hoechst 33342 and Alexa Fluor 488. Exposure times were optimized from positive control wells and from untreated negative control wells stained with secondary antibody alone. Images from 15 fields per well were acquired to compensate for any cell loss during the bioassay and subsequent staining procedures. Measurements for total cell number and total SOX17 intensity were obtained from each well using IN Cell Developer Toolbox 1.7 (GE Healthcare) software. Segmentation for the nuclei was determined based on gray-scale levels (baseline range 100-300) and nuclear size. […]

| Compound | Cell Number, % of positive control | Sox17 Intensity % of positive control | Cell Number: % of positive control | Sox17 Expression: % of positive control | Sox17 Expression: Average Total Intensity | Cell Number: Average Total Cell Number | SOX17 expression in the absence of activin A |
| --- | --- | --- | --- | --- | --- | --- | --- |
| O=C1NCCCc2cncc(c2)-c2ncnc(n2)Nc2cccc(c2)CN2CCCC1C2 (stereo not shown) [Compound 17, 3,5,7,14,20,26,31-Heptaazapentacyclo[22.3.1.1-2,6˜1˜8,12˜1˜14,18˜]hentriaconta-1(28), 2(31), 3,5,8(30), 9,11,24,26-nonaen-19-one] | 133.8 % of positive control | −0.7 % of positive control | – | – | – | – | – |
| CN1CCC(=O)NCCCNc2cccc(c2)-c2ncnc(n2)Nc2cccc(c2)C1 [Compound 21, 14-Methyl-3,5,7,14,18,22,29-heptaazatetracyclo[21.3.1.1˜2,6˜0.1˜8,12˜]nonacosa-1(27), 2(29), 3,5,8(28), 9,11,23,25-nonaen-17-one] | – | – | 44.44 % of positive control | −0.61 % of positive control | −1.96E+06 | 4719 | – |
| O=C1NCCCc2cncc(c2)-c2ncnc(n2)Nc2cccc(c2)CN2CCC1CC2 [Compound 22, 1,8,10,12,16,22,30-Heptaazapentacyclo[22.2.2.1-3,7˜0.1˜9,13˜1-14,18˜]hentriaconta-3(31), 4,6,9(30), 10,12,14(29), 15,17-nonaen-23-one] | 132.7 % of positive control | 72.4 % of positive control | – | – | – | – | SOX17 expression was induced |
| O=C1CCN2CCN(CC2)Cc2cccc(c2)Nc2ncnc(n2)-c2cncc(c2)CCCN1 [Compound 23, 1,8,10,12,16,22,26,32-Octaazapentacyclo[24.2.2.1-3,7˜0.1˜9,13˜0.1˜14,18˜]tritriaconta-3(33), 4,6,9(32), 10,12,14(31), 15,17-nonaen-23-one] | – | – | 24.13 % of positive control | −0.48 % of positive control | −1.56E+06 | 2563 | – |
| CCN1CC(=O)NCCCc2cc(ccc2F)-c2ncnc(n2)Nc2cc(Cl)cc(c2)C1 [Compound 25, 10-Chloro-14-ethyl-22-fluoro-3,5,7,14,17,27-hexaazatetracyclo[19.3.1.1˜2,6˜0.1˜8,12˜]heptacosa-1(25), 2(27), 3,5,8(26), 9,11,21,23-nonaen-16-one] | – | – | 146.17 % of positive control | 20.32 % of positive control | 4.03E+07 | 4151 | – |
| CCN1CCCc2cccc(c2)-c2ncnc(n2)Nc2cccc(c2)CCNC(=O)C1 [Compound 29, 18-Ethyl-3,5,7,15,18,28-hexaazatetracyclo[20.3.1.1˜2,6˜0.1˜8,12˜]octacosa-1(26), 2(28), 3,5,8(27), 9,11,22,24-nonaen-16-one] | 136.0 % of positive control | 34.5 % of positive control | – | – | – | – | – |
| O=C1CCN2CCN(CC2)Cc2cc(Cl)cc(c2)Nc2ncnc(n2)-c2cncc(c2)CCCN1 [Compound 34, 5-Chloro-1,8,10,12,16,22,26,32-octaazapentacyclo[24.2.2.1˜3.7˜0.1˜9,13˜0.1˜14.18˜]tritriaconta-3(33), 4,6,9(32), 10,12,14(31), 15,17-nonaen-23-one] | 114.8 % of positive control | 44.5 % of positive control | – | – | – | – | – |
| CCN1CC(=O)NCCCc2cncc(c2)-c2ncnc(n2)Nc2cc(Cl)cc(c2)C1 [Compound 35, 10-Chloro-14-ethyl-3,5,7,14,17,23,27-heptaazatetracyclo[19.3.1.1˜2,6˜0.1˜8,12]Theptacosa-1(25), 2(27), 3,5,8(26), 9,11,21,23-nonaen-16-one] | 158.7 % of positive control | 86.8 % of positive control | – | – | – | – | SOX17 expression was induced |
| O=C1NCCCc2cncc(c2)-c2ncnc(n2)Nc2cc(Cl)cc(c2)CN2CCCC1C2 (stereo not shown) [Compound 37, 10-Chloro-3,5,7,14,20,26,31-heptaazapentacyclo[22.3.1.1˜2,6˜0.1˜8,12˜0.1˜14,18˜]hentriaconta-1(28), 2(31), 3,5,8(30), 9,11,24,26-nonaen-19-one] | 129.3 % of positive control | 29.1 % of positive control | – | – | – | – | – |
| CN1CCC(=O)NCCCNc2ncccc2-c2ncnc(n2)Nc2cccc(c2)C1 [Compound 39, 9-Methyl-2,3,4,5,7,8,9,10-octahydro-16H-17,21-(azeno)-11,15-(metheno)pyrido[3,2-g][1,3,5,9,13,17]hexaazacyclotricosin-6(1H)-one] | 147.0 % of positive control | 35.2 % of positive control | – | – | – | – | – |
